Experimental data published in patent US20100189648A1, “INHIBITORS FOR DISRUPTING THE INTERACTION OF UBIQUITINATION RELATED ENZYMES AND USES THEREOF” (priority 2006, published 2010).
In brackets after ≈: the same amount, converted by molar mass. Several values for one entry are separate records, joined by “and”; a condition that tells them apart may be missing. Identical values can stand only once. Like-named read-outs stand apart in the source and are kept apart here.

Legend:
Format in all cases: cell-based, human
U251 = assay: MTT survival assay, glioma cell line (brain tumor U251); details: U251 (second table)
In short: (§1)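 Survival was measured by MTT reduction after tumour cells had been exposed to a range of compound concentrations for 68 hours at 37 C. Absorbance at 570 nm gave percent inhibition against untreated wells, and IC50 values were fitted by the Bliss method.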

A459 = assay: MTT survival assay, lung cancer cell line (A459); details: A459 Experiment #2; for IC50: Homo sapiens
In short: as §1

MCF-7 = assay: MTT survival assay, breast cancer cell line (MCF-7); details: for IC50: Homo sapiens
In short: as §1

HCT116 = assay: MTT survival assay, colon cancer cell line (HCT116); details: for IC50: Homo sapiens
Protocol: The effect of the above identified compounds on anti-tumor activity in human carcinoma cells was determined by the MTT survival assay. The MTT assay is a commonly used method in evaluation of cell survival, based on the ability of viable cells to convert MTT (MTT, Sigma, Cat No. 044K5307), a soluble tetrazolium salt [3-(4,5-dimethylthuazole-2-yl)-2,5 diphenyl tetrazolium bromide], into an insoluble formazan precipitate, which is quantitated by spectrophotometry following solubilization in dimethyl sulfoxide (DMSO).
In brief, different carcinoma cells were treated with negative control, various test articles at different concentration, and positive control (DDP), in 96-well tissue culture dishes. Each test article at different concentration is repeated 3 times.
Different carcinoma cells were diluted with 10% FBS and RPM1640 or MEM media to a concentration of 3-5×10^4 per ml suspension. 100 microliter of cells were incubated in each well in 96-well tissue culture dishes at 37 C. The cells were incubated at 37 C on the first day. On the second day, media supernatant was removed and replaced with media and different concentration of test articles (100 microliter in each well). Three Negative control wells and three positive control (DDP) wells were also included. The 96-well plate were incubated at 37 C for another 68 hours. After 68 hours, supernatant of each well was removed. 100 microliter of 1 mg/ml MTT diluted in PBS was injected into each well. The cells were incubated at 37 C for another 4 hours. The cells were then solubilized in 150 microliter DMSO, mixed for 10 minutes and absorbance readings were taken using Microplate reader Bio-Rad Model 550 at 570 nm. IR (cell growth inhibition rate) % was calculated as (OD570 of negative control-OD570 with test article)/OD570 of negative control. IC50 (cell 50% inhibition concentration) at 95% confidence level was calculated with Bliss method.

Hela cells = assay: MTT survival assay, cervical cancer line (Hela cells); details: for IC50: Homo sapiens
In short: as §1

SMMC-7721 = assay: MTT survival assay, liver cancer cell line (SMMC-7721); details: SMMC-7721 Experiment #2; for IC50: Homo sapiens
In short: as §1

SKOV3 = assay: MTT survival assay, ovarian cancer cell line (SKOV3); details: SKOV3 (second table)
In short: as §1

[1] = 95% confidence limits of IC50, read-out: IC50 (95% confidence level), interval
[2] = Bliss method, unit not printed (concentrations in μg/ml), read-out: IC50 (95% confidence level)

Compound: O=C(CSc1cc(COc2ccc(Br)cc2)[nH]n1)c1ccccc1 [Mol 21]
- IC50 (U251; Homo sapiens, U-251, Bliss method, unit not printed (concentrations in μg/ml), read-out: IC50 (95% confidence level)): 16.2 µg/mL (≈ 40.3 µM)
- IR (%) (U251; 3.125 μg/ml): 4.2%
- OD(A570 nm) (U251; 3.125 μg/ml): 0.840 ± 0.013
- IR (%) (U251; 6.25 μg/ml): 18.0%
- OD(A570 nm) (U251; 6.25 μg/ml): 0.719 ± 0.110
- IR (%) (U251; 12.5 μg/ml): 42.8%
- OD(A570 nm) (U251; 12.5 μg/ml): 0.501 ± 0.058
- IR (%) (U251; 25 μg/ml): 73.5%
- OD(A570 nm) (U251; 25 μg/ml): 0.232 ± 0.034
- IR (%) (U251; 50 μg/ml): 86.2%
- OD(A570 nm) (U251; 50 μg/ml): 0.121 ± 0.019
- IR (%) (U251; 100 μg/ml): 89.2%
- OD(A570 nm) (U251; 100 μg/ml): 0.094 ± 0.007
- IR (%) (A459; 3.125 μg/ml): −0.7%
- OD(A570 nm) (A459; 3.125 μg/ml): 0.642 ± 0.073
- IR (%) (A459; 6.25 μg/ml): −3.9%
- OD(A570 nm) (A459; 6.25 μg/ml): 0.662 ± 0.031
- IR (%) (A459; 12.5 μg/ml): 56.2%
- OD(A570 nm) (A459; 12.5 μg/ml): 0.279 ± 0.014
- IR (%) (A459; 25 μg/ml): 81.5%
- OD(A570 nm) (A459; 25 μg/ml): 0.118 ± 0.027
- IR (%) (A459; 50 μg/ml): 89.2%
- OD(A570 nm) (A459; 50 μg/ml): 0.069 ± 0.010
- IR (%) (A459; 100 μg/ml): 87.1%
- OD(A570 nm) (A459; 100 μg/ml): 0.082 ± 0.015
- IC50 (A459; [1]): 6.3 to 7.13 µg/mL (≈ 15.6 to 17.7 µM)
- IC50 (A459; [2]): 6.72 µg/mL (≈ 16.7 µM)
- IR (%) (MCF-7; 3.125 μg/ml): 12.5%
- OD(A570 nm) (MCF-7; 3.125 μg/ml): 0.789 ± 0.064
- IR (%) (MCF-7; 6.25 μg/ml): 30.9%
- OD(A570 nm) (MCF-7; 6.25 μg/ml): 0.624 ± 0.008
- IR (%) (MCF-7; 12.5 μg/ml): 61.6%
- OD(A570 nm) (MCF-7; 12.5 μg/ml): 0.346 ± 0.022
- IR (%) (MCF-7; 25 μg/ml): 89.1%
- OD(A570 nm) (MCF-7; 25 μg/ml): 0.098 ± 0.006
- IR (%) (MCF-7; 50 μg/ml): 92.4%
- OD(A570 nm) (MCF-7; 50 μg/ml): 0.069 ± 0.006
- IR (%) (MCF-7; 100 μg/ml): 92.1%
- OD(A570 nm) (MCF-7; 100 μg/ml): 0.072 ± 0.007
- IC50 (MCF-7; MCF7, 95% confidence limits of IC50, read-out: IC50 (95% confidence level), interval): 8.53 to 11.4 µg/mL (≈ 21.2 to 28.4 µM)
- IC50 (MCF-7; MCF7, Bliss method, unit not printed (concentrations in μg/ml), read-out: IC50 (95% confidence level)): 9.93 µg/mL (≈ 24.6 µM)
- IR (%) (HCT116; 3.125 μg/ml): 56.2% and 30.4%
- OD(A570 nm) (HCT116; 6.25 μg/ml): 0.300 ± 0.050 and 0.394 ± 0.039
- OD(A570 nm) (HCT116; 12.5 μg/ml): 0.150 ± 0.025 and 0.267 ± 0.035
- IR (%) (HCT116; 25 μg/ml): 80.0% and 81.3%
- OD(A570 nm) (HCT116; 25 μg/ml): 0.109 ± 0.006 and 0.101 ± 0.020
- OD(A570 nm) (HCT116; 50 μg/ml): 0.083 ± 0.011 and 0.085 ± 0.004
- IR (%) (HCT116; 100 μg/ml): 84.1% and 84.7%
- OD(A570 nm) (HCT116; 100 μg/ml): 0.086 ± 0.012 and 0.083 ± 0.001
- IC50 (HCT116; HCT-116, 95% confidence limits of IC50, read-out: IC50 (95% confidence level), interval): 2.99 to 3.33 µg/mL (≈ 7.42 to 8.26 µM)
- IC50 (HCT116; HCT-116, Bliss method, unit not printed (concentrations in μg/ml), read-out: IC50 (95% confidence level)): 3.16 µg/mL (≈ 7.84 µM)
- IR (%) (Hela cells; 0.41 μg/ml): 10.0%
- OD(A570 nm) (Hela cells; 0.41 μg/ml): 0.668 ± 0.049
- OD(A570 nm) (Hela cells; 1.23 μg/ml): 0.785 ± 0.081
- OD(A570 nm) (Hela cells; 3.70 μg/ml): 0.774 ± 0.066
- IR (%) (Hela cells; 11.11 μg/ml): 35.4%
- OD(A570 nm) (Hela cells; 11.11 μg/ml): 0.480 ± 0.035
- IR (%) (Hela cells; 33.33 μg/ml): 73.8%
- OD(A570 nm) (Hela cells; 33.33 μg/ml): 0.194 ± 0.031
- IR (%) (Hela cells; 100 μg/ml): 82.5%
- OD(A570 nm) (Hela cells; 100 μg/ml): 0.130 ± 0.039
- IC50 (Hela cells; [1]): 18.8 to 26.4 µg/mL (≈ 46.6 to 65.6 µM)
- IC50 (Hela cells; [2]): 22.2 µg/mL (≈ 55.1 µM)
- IC50 (SMMC-7721; [1]): 9.32 to 9.71 µg/mL (≈ 23.1 to 24.1 µM)
- IC50 (SMMC-7721; [2]): 9.52 µg/mL (≈ 23.6 µM)
- IR (%) (SMMC-7721; 3.125 μg/ml): −49.9%
- OD(A570 nm) (SMMC-7721; 3.125 μg/ml): 0.690 ± 0.603
- IR (%) (SMMC-7721; 6.25 μg/ml): 65.1%
- OD(A570 nm) (SMMC-7721; 6.25 μg/ml): 0.161 ± 0.085
- IR (%) (SMMC-7721; 12.5 μg/ml): 68.3%
- OD(A570 nm) (SMMC-7721; 12.5 μg/ml): 0.146 ± 0.041
- IR (%) (SMMC-7721; 25 μg/ml): 72.0%
- OD(A570 nm) (SMMC-7721; 25 μg/ml): 0.129 ± 0.006
- IR (%) (SMMC-7721; 50 μg/ml): 82.9%
- OD(A570 nm) (SMMC-7721; 50 μg/ml): 0.079 ± 0.005
- IR (%) (SMMC-7721; 100 μg/ml): 83.2%
- OD(A570 nm) (SMMC-7721; 100 μg/ml): 0.077 ± 0.009
- IC50 (SKOV3; Homo sapiens, SK-OV-3, Bliss method, unit not printed (concentrations in μg/ml), read-out: IC50 (95% confidence level)): 17.7 µg/mL (≈ 43.9 µM)
- IR (%) (SKOV3; 3.125 μg/ml): 28.2%
- OD(A570 nm) (SKOV3; 3.125 μg/ml): 0.503 ± 0.031
- IR (%) (SKOV3; 6.25 μg/ml): 24.1%
- OD(A570 nm) (SKOV3; 6.25 μg/ml): 0.532 ± 0.025
- IR (%) (SKOV3; 12.5 μg/ml): 34.3%
- OD(A570 nm) (SKOV3; 12.5 μg/ml): 0.460 ± 0.195
- IR (%) (SKOV3; 25 μg/ml): 38.8%
- OD(A570 nm) (SKOV3; 25 μg/ml): 0.429 ± 0.002
- IR (%) (SKOV3; 50 μg/ml): 83.0%
- OD(A570 nm) (SKOV3; 50 μg/ml): 0.119 ± 0.010
- IR (%) (SKOV3; 100 μg/ml): 89.1%
- OD(A570 nm) (SKOV3; 100 μg/ml): 0.077 ± 0.011
